The record followed here is ChEMBL document CHEMBL5331108, “Design and Synthesis of 4-Fluorophenyl-5-methylene-2(5H)-furanone Derivatives as Potent Quorum Sensing Inhibitors” (J Med Chem, 2023).

The structures appear in SMILES notation. ≈ marks a conversion by molar mass, not a printed value. Calls of active or inactive are those of the source. No cut-off for these calls is given here.

Data set [1] relates to Bacillus subtilis. The data set can be described thus: Antibacterial activity against penicillin-susceptible Bacillus subtilis ATCC9372 assessed as inhibition of bacterial growth incubated for 20 hrs by CLSI protocol based microdilution method. In kind it is functional.
The test system of data set [2] is Staphylococcus aureus. Put plainly: Antibacterial activity against erthromycin-susceptible Staphylococcus aureus ATCC25923 assessed as inhibition of bacterial growth incubated for 20 hrs by CLSI protocol based microdilution method. The class given is functional.
Data set [3] relates to Bacillus pumilus. Put plainly: Antibacterial activity against penicillin-susceptible Bacillus pumilus CMCC63202 assessed as inhibition of bacterial growth incubated for 20 hrs by CLSI protocol based microdilution method. The class given is functional.
Data set [4] concerns Escherichia coli. Put plainly: Antibacterial activity against penicillin-susceptible Escherichia coli ATCC25922 assessed as inhibition of bacterial growth incubated for 20 hrs by CLSI protocol based microdilution method. In kind it is functional.
The subject of data set [5] is Staphylococcus aureus. The data set can be described thus: Antibacterial activity against methicillin-resistant Staphylococcus aureus ATCC43300 assessed as inhibition of bacterial growth incubated for 20 hrs by CLSI protocol based microdilution method. The class given is functional.
The subject of data set [6] is Pseudomonas aeruginosa. The data set can be described thus: Antibacterial activity against penicillin-susceptible Pseudomonas aeruginosa ATCC27853 assessed as inhibition of bacterial growth incubated for 20 hrs by CLSI protocol based microdilution method. In kind it is functional.
Data set [7] deals with Pseudomonas aeruginosa. Put plainly: Antibacterial activity against wild type Pseudomonas aeruginosa […] CGMCC1.12483 assessed as inhibition of bacterial growth incubated for 20 hrs by CLSI protocol based microdilution method. The class given is functional.
Data set [8] is described as follows: Inhibition of quorum sensing system in Pseudomonas aeruginosa PAO1 assessed as inhibition of pyocyanin production at 102.4 ug/ml incubated for 18 hrs by absorbance based assay. The note with it: dose 102.4 µg/ml.
Data set [9] relates to Pseudomonas aeruginosa. Put plainly: Antibacterial activity against Pseudomonas aeruginosa 27853 assessed as inhibition of bacterial growth at 256 ug/ml measured after 25 hrs by absorbance based assay. The class given is functional, organism-based. The settings on record: dose 256.0 µg/ml.
The test system of data set [10] is Pseudomonas aeruginosa. The data set can be described thus: Antibacterial activity against Pseudomonas aeruginosa PAO1 assessed as inhibition of bacterial growth at 256 ug/ml measured after 25 hrs by absorbance based assay. The class given is functional, organism-based. The settings on record: dose 256.0 µg/ml.
Data set [11] deals with Pseudomonas aeruginosa. The data set can be described thus: Inhibition of biofilm formation in Pseudomonas aeruginosa PAO1 at 32 ug/ml incubated for 20 hrs by crystal violet staining based analysis. In kind it is functional. The note with it: dose 32.0 µg/ml.
Data set [12] can be described thus: Inhibition of quorum sensing system in Pseudomonas aeruginosa PAO1 assessed as inhibition of rhamnolipid production at 102.4 ug/ml incubated for 24 hrs by absorbance based assay. The settings on record: dose 102.4 µg/ml.
A short description of data set [13]: Hemolytic activity in mouse red blood cells assessed as hemolysis rate at 512 ug/ml incubated for 1 hrs by microplate reader analysis relative to control. The class given is toxicity, cell-based, Erythrocyte. The note with it: red blood cells (erythrocytes), at 512 µg/mL, read-out: Activity.
Data set [14] is described as follows: Inhibition of quorum sensing system in Pseudomonas aeruginosa PAO1 assessed as inhibition of protease activity at 102.4 ug/ml incubated for 24 hrs by absorbance based assay. The settings on record: dose 102.4 µg/ml.
The subject of data set [15] is Pseudomonas aeruginosa. Put plainly: Synergistic antibacterial activity against Pseudomonas aeruginosa 27853 assessed as inhibition of bacterial growth at 1 to 256 ug/ml incubated for 24 hrs in the presence of Ciprofloxacin by absorbance based microplate reader analysis. The settings on record: dose 1-256 µg/ml. In kind it is functional, organism-based.
For data set [16], the system named is Pseudomonas aeruginosa. The data set can be described thus: Synergistic antibacterial activity against Pseudomonas aeruginosa PAO1 assessed as inhibition of bacterial growth at 1 to 256 ug/ml incubated for 24 hrs in the presence of ciprofloxacin by absorbance based microplate reader analysis. In kind it is functional, organism-based. The note with it: dose 1-256 µg/ml.

Data set [17] relates to Pseudomonas aeruginosa. Put plainly: Synergistic antibacterial activity against Pseudomonas aeruginosa 27853 assessed as inhibition of bacterial growth incubated for 24 hrs in the presence of Clarithromycin by absorbance based microplate reader analysis. The class given is functional, organism-based. The settings on record: dose 1-256 µg/ml.
In data set [18] the test system is Pseudomonas aeruginosa. The data set can be described thus: Synergistic antibacterial activity against Pseudomonas aeruginosa 27853 assessed as inhibition of bacterial growth by measuring fold change in ciprofloxacin at 1 to 256 ug/ml incubated for 24 hrs by absorbance based microplate reader analysis. The class given is functional. The settings on record: dose 1-256 µg/ml.

The test system of data set [19] is Pseudomonas aeruginosa. The data set can be described thus: Synergistic antibacterial activity against Pseudomonas aeruginosa PAO1 assessed as inhibition of bacterial growth at 1 to 256 ug/ml incubated for 24 hrs in the presence of Clarithromycin by absorbance based microplate reader analysis. In kind it is functional, organism-based. The note with it: dose 1-256 µg/ml.

On to `C=C1OC(=O)C(CNC(=O)CCc2ccccc2)=C1c1ccc(F)cc1`, for which the MIC is 64 µg/mL (≈ 182 µM) in data set [1]; above 512 µg/mL in [2]; above 512 µg/mL in data set [3]; above 512 µg/mL in data set [4]; 16 µg/mL (≈ 45.5 µM) in data set [5]; above 512 µg/mL in data set [6]. In addition, the MIC in data set [7] was determined as 512 µg/mL (≈ 1460 µM). For the same compound, the inhibition entry in data set [8] was “inactive”.

`O=C1C=C(Br)/C(=C/Br)O1`: the minimal inhibitory concentration (MIC) in [1] was determined as 64 µg/mL (≈ 252 µM); in data set [2], 32 µg/mL (≈ 126 µM); in [3], 256 µg/mL (≈ 1010 µM); in data set [4], 256 µg/mL (≈ 1010 µM); in data set [5], 128 µg/mL (≈ 504 µM); in [6] it was 256 µg/mL (≈ 1010 µM). For the same compound, the minimum inhibitory concentration (MIC) in data set [7] worked out at 128 µg/mL (≈ 504 µM). Also, the result in data set [9] and in data set [10] was Active. Besides, the inhibition result in data set [11] is “Active”. In addition, the inhibition in data set [12] was found to be 44.9%.

Turning to `C=C1C(c2ccc(F)cc2)=C(CNC(=O)c2ccc(C)cc2)C(=O)N1c1cccc(C)c1`, the MIC was above 512 µg/mL in [1]; above 512 µg/mL in data set [2]; 512 µg/mL (≈ 1200 µM) in [3]; above 512 µg/mL in data set [4]; above 512 µg/mL in data set [5]; above 512 µg/mL in data set [6]. In addition, the MIC in data set [7] turned out to be 512 µg/mL (≈ 1200 µM). Further, the hemolysis at 1 h, 512 ug/ml in data set [13] was above 2.5%. The inhibition in data set [14] is 8.6%; in data set [12] it was 57.1%; in data set [8] it was 35.2%. Further, the outcome in [9] and in data set [10] was inactive. For the same compound, the result in [15] and in data set [16] was Active. Also, in data set [17], the Activity result is “Dose-Dependent Effect”. For the same compound, the inhibition entry in data set [11] is “Active”. For the same compound, the “fold change (FC)” value in [18] is recorded as “>=1.5”.

Regarding `C=C1OC(=O)C(CNC(=O)CCCCCCCCCCC)=C1c1ccc(F)cc1`, the MIC in data set [1], in [2], in data set [3], in data set [4], in data set [5] and in data set [6] was above 512 µg/mL throughout. In data set [7], the MIC is above 512 µg/mL. Moreover, the inhibition result in [14], in data set [11] and in data set [12] was “Active” in each case. Also, the outcome in data set [9] and in data set [10] was inactive. Also, the inhibition in data set [8] was found to be 36.5%.

On to `C=C1OC(=O)C(CNC(=O)c2ccc(Cl)cc2)=C1c1ccc(F)cc1`, for which the minimal inhibitory concentration (MIC) in data set [1], in [2], in [3], in data set [4], in [5] and in data set [6] was above 512 µg/mL in each case. In addition, the minimal inhibitory concentration (MIC) in data set [7] was above 512 µg/mL. Besides, the hemolysis at 1 h, 512 ug/ml in data set [13] is above 2.5%. The figures for the inhibition in [14] and in [12] were 8.6% and 47.3%, respectively. Besides, the outcome in data set [9] and in data set [10] was inactive. The outcome in data set [15], in data set [16] and in [19] was Active. For the same compound, in [17], the Activity result was “Dose-Dependent Effect”. Moreover, the inhibition result in [11] and in [8] was “Active” in each case.

For `C=C1OC(=O)C(CNC(=O)Cc2ccccc2)=C1c1ccc(F)cc1`, the MIC in data set [1], in data set [2], in data set [3], in [4], in [5] and in [6] was above 512 µg/mL throughout. For the same compound, the minimal inhibitory concentration (MIC) in data set [7] is above 512 µg/mL. For the same compound, in data set [8], the inhibition result was “inactive”.

Regarding `C=C1OC(=O)C(CNC(=O)c2cccc(OC)c2)=C1c1ccc(F)cc1`, the minimum inhibitory concentration (MIC) is above 512 µg/mL in data set [1]; above 512 µg/mL in [2]; above 512 µg/mL in [3]; above 512 µg/mL in data set [4]; 32 µg/mL (≈ 90.6 µM) in data set [5]; above 512 µg/mL in data set [6]. In addition, the MIC in data set [7] is above 512 µg/mL. Further, the inhibition in data set [14] stood at 8.6%. The result in data set [9] and in data set [10] was inactive. The outcome in data set [15], in data set [16] and in data set [19] was Active. Moreover, the Activity result in [17] is “Dose-Dependent Effect”. The inhibition result in [11], in data set [12] and in [8] was “Active” throughout.

With `C=C1OC(=O)C(CNC(=O)c2ccc(C)cc2)=C1c1ccc(OC)cc1`, the MIC in data set [1], in data set [2], in data set [3], in data set [4], in [5] and in data set [6] was above 512 µg/mL in each case. In addition, the minimal inhibitory concentration (MIC) in data set [7] was above 512 µg/mL. The inhibition entry in [14], in [12] and in data set [8] was “Active” throughout. Further, the result in data set [9] and in data set [10] was inactive. Besides, the inhibition entry in [11] was “inactive”.

As for `C=C1OC(=O)C(CNC(=O)CCCCCCCCCC)=C1c1ccc(F)cc1`, the MIC in [1], in data set [2], in data set [3], in data set [4], in data set [5] and in data set [6] was above 512 µg/mL in each case. In addition, the MIC in [7] was above 512 µg/mL. For the same compound, the inhibition result in [14] and in [12] was “Active” each time. Moreover, the outcome in data set [9] and in data set [10] was inactive. Also, the inhibition entry in [11] is “inactive”. In data set [8], the inhibition came out at 44.7%.

Take `C=C1C(c2ccc(F)cc2)=C(CNC(=O)c2ccc(C)cc2)C(=O)N1c1ccc(C)cc1`: the MIC is 512 µg/mL (≈ 1200 µM) in data set [1]; above 512 µg/mL in [2]; 512 µg/mL (≈ 1200 µM) in [3]; above 512 µg/mL in data set [4]; above 512 µg/mL in [5]; above 512 µg/mL in data set [6]. The MIC in data set [7] was found to be 512 µg/mL (≈ 1200 µM). Moreover, in data set [13], the hemolysis at 1 h, 512 ug/ml is above 2.5%. Besides, the values for the inhibition in [14] and in data set [12] were 8.6% and 49.7%, respectively. Besides, the result in data set [9] and in data set [10] was inactive. In addition, the result in [15] and in data set [16] was Active. Further, the Activity result in data set [17] is “Dose-Dependent Effect”. Further, the inhibition result in data set [11] was “inactive”. Besides, the “fold change (FC)” value in data set [18] was “>=1.5”. The inhibition result in data set [8] was “Active”.

Consider `C=C1OC(=O)C(CNC(=O)c2ccc(C)cc2)=C1c1cccc(Cl)c1`, for which the MIC in data set [1], in data set [2], in data set [3], in [4], in [5] and in data set [6] was above 512 µg/mL in each case. Also, the MIC in data set [7] was above 512 µg/mL. For the same compound, the inhibition entry in data set [14], in [12] and in [8] was “Active” each time. The outcome in data set [9] and in data set [10] was inactive. In data set [11], the inhibition result is “inactive”.

In the case of `C=C1C(c2ccc(F)cc2)=C(CNC(=O)c2ccc(C)cc2)C(=O)N1C1CCCC1`, the MIC in [1] is above 512 µg/mL; in data set [2] it was above 512 µg/mL; in data set [3] it was 512 µg/mL (≈ 1270 µM); in [4], above 512 µg/mL; in data set [5], 512 µg/mL (≈ 1270 µM); in data set [6], above 512 µg/mL. The MIC in data set [7] was determined as 512 µg/mL (≈ 1270 µM).
